Assay results published in patent US8575197B2, “Pyrolinone derivative and pharmaceutical composition comprising the same” (Shionogi & Co., Ltd., priority 2008, dated 2013).

The molecules below were run against human P2X3 receptor (Homo sapiens (Human), UniProt P56373) (assay: P2X3 receptor inhibition, ATP-evoked Fluo-3 calcium fluorescence (FDSS 3000)). Settings: C6BU-1 cell transfected with human P2X3 receptor gene; ATP-evoked Fluo-3 fluorescence.
Type: cell-based
Procedure, shortened: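 C6BU-1 cells stably transfected with human P2X3, loaded with 4 μM Fluo-3-AM for 1 h at 37 °C in HEPES buffer pH 7.5 with probenecid. Compound added 5 min before 40 nM ATP solution; fluorescence followed 3 min. IC50 from ratio of peak post-ATP to baseline fluorescence.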

Sequence of human P2X3 receptor (P56373 whole entry): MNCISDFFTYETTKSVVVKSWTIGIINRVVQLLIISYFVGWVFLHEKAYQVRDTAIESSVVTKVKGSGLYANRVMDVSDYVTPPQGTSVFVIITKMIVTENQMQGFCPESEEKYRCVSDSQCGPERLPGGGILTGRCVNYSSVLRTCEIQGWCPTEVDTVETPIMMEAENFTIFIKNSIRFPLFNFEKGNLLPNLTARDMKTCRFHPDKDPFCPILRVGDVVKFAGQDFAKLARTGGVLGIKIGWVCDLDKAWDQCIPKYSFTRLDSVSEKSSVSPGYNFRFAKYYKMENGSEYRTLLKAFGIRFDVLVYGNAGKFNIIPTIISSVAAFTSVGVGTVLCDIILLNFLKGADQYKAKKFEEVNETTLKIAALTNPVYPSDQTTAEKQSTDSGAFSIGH

IC50	Compound
123 nM	COc1ccc(C2(c3n[nH]c4c3C(c3ccccc3OC)N(c3ccc(-c5ccon5)cc3)C4=O)CC2)cc1 (stereo not drawn) [II-198]
11 nM	CC(C)c1n[nH]c2c1C(c1ccccc1OCC(=O)O)N(c1ccc(-c3ccsc3)cc1)C2=O (stereo not drawn) [II-047]
5 nM	CC(C)(C)c1n[nH]c2c1C(c1cccnc1OCCO)N(c1ccc(-c3ccsc3)cc1)C2=O (stereo not drawn) [II-039]
127 nM	CC(C)CC(=O)C1=C(O)C(=O)N(c2ccc(-c3ccsc3)cc2)C1c1ccccc1C(F)(F)F (stereo not drawn) [Compound I-292]
637 nM	COCc1ccccc1C1C(C(=O)C(C)C)=C(O)C(=O)N1c1ccc(I)cc1 (stereo not drawn) [Compound I-281]
44 nM	Cc1ccc(-c2ccc(N3C(=O)C(O)=C(C(=O)CC(C)C)C3c3ccccc3C(=O)N(C)C)cc2)o1 (stereo not drawn) [Compound I-399]
305 nM	COc1ccccc1C1C(C(=O)C(C)(C)CO)=C(O)C(=O)N1c1ccc(SC)cc1 (stereo not drawn) [Compound I-068]
511 nM	COCc1ccccc1[C@H]1C(C(=O)C(C)C)=C(O)C(=O)N1c1ccc(-c2ccsc2)cc1 [Compound I-254]
36 nM	COc1ncccc1C1c2c(C(C)(C)C)n[nH]c2C(=O)N1c1ccc(-c2cccs2)cn1 (stereo not drawn) [II-260]
23 nM	CC(=O)Nc1ccccc1C1c2c(C(C)C)n[nH]c2C(=O)N1c1ccc(-c2ccsc2)cc1 (stereo not drawn) [II-085]
377 nM	C=C(C)c1n[nH]c2c1C(c1ccccc1OC)N(c1ccc(-c3ccon3)cc1)C2=O (stereo not drawn) [II-149]
336 nM	COc1ncccc1C1C(C(=O)CC(C)C)=C(O)C(=O)N1c1ccc(-c2ccoc2)cc1 (stereo not drawn) [Compound I-340]
460 nM	CCOC(=O)C1c2c(C(C)C)n[nH]c2C(=O)N1c1ccc(-c2ccsc2)cc1 (stereo not drawn) [II-183]
28 nM	COCc1ccccc1C1C(C(=O)C(C)C)=C(O)C(=O)N1c1ccc(-c2csc(C)c2)cc1 (stereo not drawn) [Compound I-265]
213 nM	Cc1ccc(-c2ccc(N3C(=O)C(O)=C(C(=O)C(C)C)C3c3ccccc3C(=O)N3CCOCC3)cc2)o1 (stereo not drawn) [Compound I-549]
53 nM	COc1ccc(C(=O)C2=C(O)C(=O)N(c3ccc(-c4noc(C)n4)cc3)C2c2ccccc2OC)cc1 (stereo not drawn) [Compound I-030]
11 nM	CC(C)c1n[nH]c2c1C(c1ccccc1OCC(=N)NO)N(c1ccc(-c3ccsc3)cc1)C2=O (stereo not drawn) [II-185]
219 nM	C[S+]([O-])CCOc1ccccc1C1C(C(=O)C(C)(C)C)=C(O)C(=O)N1c1ccc(-c2ccon2)cc1 (stereo not drawn) [Compound I-152]
468 nM	CCCc1ccc(N2C(=O)C(O)=C(C(=O)C(C)(C)C)C2c2ccccc2OC)cc1 (stereo not drawn) [Compound I-044]
20 nM	COCCOc1ncccc1C1C(C(=O)C(C)C)=C(O)C(=O)N1c1ccc(-c2ccc(C)o2)cc1 (stereo not drawn) [Compound I-357]
7 nM	COCCOc1ccccc1[C@@H]1C(C(=O)C(C)C)=C(O)C(=O)N1c1ccc(-c2ccc(C)s2)cc1 [Compound I-465]
237 nM	CNC(=O)COc1ccccc1C1c2c(C(C)(C)C)n[nH]c2C(=O)N1c1ccc(-c2ccon2)cc1 (stereo not drawn) [II-077]
54 nM	COc1ccccc1C1c2c(C(C)(C)CO)n[nH]c2C(=O)N1c1ccc(SC)cc1 (stereo not drawn) [II-009]
30 nM	COc1ccccc1C1C(C(=O)C(C)C)=C(O)C(=O)N1c1ccc(-c2ccc(C)s2)cc1 (stereo not drawn) [Compound I-259]

IC50	Compound
8 nM	CC(C)CC(=O)C1=C(O)C(=O)N(c2ccc(-c3ccsc3)cc2)C1c1ccccc1OCC(CO)CO (stereo not drawn) [Compound I-498]
19 nM	COCCCOc1ncccc1C1C(C(=O)C(C)C)=C(O)C(=O)N1c1ccc(-c2ccc(C)o2)cc1 (stereo not drawn) [Compound I-471]
31 nM	CC(C)CC(=O)C1=C(O)C(=O)N(c2ccc(-c3ccsc3)cc2)C1c1ccccc1C(=O)N(C)C (stereo not drawn) [Compound I-405]
48 nM	CC(C)(C)C(=O)C1=C(O)C(=O)N(c2ccc(-c3ccco3)cc2)C1c1ccccc1OCCO (stereo not drawn) [Compound I-085]
70 nM	Cc1cc(-c2ccc(N3C(=O)C(O)=C(C(=O)C(C)C)C3c3cccnc3OCCCO)cc2)cs1 (stereo not drawn) [Compound I-570]
254 nM	COCCN(C)C(=O)c1ccccc1C1C(C(=O)C(C)C)=C(O)C(=O)N1c1ccc(-c2ccc(C)o2)cc1 (stereo not drawn) [Compound I-586]
496 nM	CC(C)OCc1ccccc1C1C(C(=O)C(C)C)=C(O)C(=O)N1c1ccc(-c2ccon2)cc1 (stereo not drawn) [Compound I-540]
61 nM	CC(C)C(=O)C1=C(O)C(=O)N(c2ccc(-c3ccoc3)cc2)C1c1cccnc1OCCCO (stereo not drawn) [Compound I-566]
137 nM	CC(C)(C)C(=O)C1=C(O)C(=O)N(c2ccc(-c3ccon3)cc2)C1c1ccccc1OC(F)F (stereo not drawn) [Compound I-064]
19 nM	Cc1nc(-c2ccc(N3C(=O)C(O)=C(C(=O)C(C)C)C3c3ccccc3OCC(C)C)cc2)no1 (stereo not drawn) [Compound I-451]
488 nM	COc1ccccc1C1C(C(=O)C(C)C)=C(O)C(=O)N1c1ccc(-c2cc(C)on2)cc1 (stereo not drawn) [Compound I-457]
337 nM	COc1ccccc1C1C(C(=O)c2cc[nH]c2)=C(O)C(=O)N1c1ccc(-c2csc(C)c2)cc1 (stereo not drawn) [Compound I-553]
36 nM	COCCN(C)C(=O)c1ccccc1C1C(C(=O)CC(C)C)=C(O)C(=O)N1c1ccc(-c2csc(C)c2)cc1 (stereo not drawn) [Compound I-497]
416 nM	CNc1cc(-c2ccc(N3C(=O)c4[nH]nc(C(C)(C)C)c4C3c3ccccc3OC)cc2)on1 (stereo not drawn) [II-146]
155 nM	COCCCOc1ccccc1C1C(C(=O)C(C)C)=C(O)C(=O)N1c1ccc(-c2noc(C)n2)cc1 (stereo not drawn) [Compound I-491]
12 nM	COCCOc1ccccc1C1c2c(C(C)(C)C)n[nH]c2C(=O)N1c1ccc(-c2cccs2)cc1 (stereo not drawn) [II-114]
13 nM	COc1ccccc1C1c2c(C(C)(C)C)n[nH]c2C(=O)N1c1ccc(-c2ccsc2)cn1 (stereo not drawn) [II-248]
113 nM	COc1ccccc1C1c2c(C(C)(C)c3ccccc3)n[nH]c2C(=O)N1c1ccc(-c2ccon2)cc1 (stereo not drawn) [II-199]
280 nM	Cc1ccc(-c2ccc(N3C(=O)C(O)=C(C(=O)CC(C)C)C3c3cccnc3C(=O)N(C)C)cc2)s1 (stereo not drawn) [Compound I-574]
21 nM	COc1ccc(C(=O)C2=C(O)C(=O)N(c3ccc(-c4nc(C)no4)cc3)C2C2CCCCC2)cc1 (stereo not drawn) [Compound I-020]
615 nM	CN(C)CCOc1ccccc1C1C(C(=O)C(C)(C)C)=C(O)C(=O)N1c1ccc(-c2ccon2)cc1 (stereo not drawn) [Compound I-137]
158 nM	CC(C)CC(=O)C1=C(O)C(=O)N(c2ccc(-c3ccon3)cc2)C1c1ccccc1OC(F)F (stereo not drawn) [Compound I-307]
47 nM	Cc1ccc(-c2ccc(N3C(=O)C(O)=C(C(=O)CC(C)C)C3c3cccnc3C(=O)NCC#N)cc2)s1 (stereo not drawn) [Compound I-577]
111 nM	CC(C)C(=O)C1=C(O)C(=O)N(c2ccc(-c3ccsc3)cc2)C1c1ccccc1OCC(=O)O (stereo not drawn) [Compound I-185]

IC50	Compound
187 nM	COc1ccccc1C1C(C(=O)C(C)(C)C)=C(O)C(=O)N1c1ccc(SC)cc1 (stereo not drawn) [Compound I-052]
578 nM	COC1=C(C(=O)CC(C)C)C(c2ccccc2OC)N(c2ccc(-c3ccc(C)s3)cc2)C1=O (stereo not drawn) [Compound I-329]
355 nM	CC(C)(C)C(=O)C1=C(O)C(=O)N(c2ccc(-c3ccon3)cc2)C1c1ccccc1OCC#N (stereo not drawn) [Compound I-103]
399 nM	COCc1ccccc1C1C(C(=O)CC(C)C)=C(O)C(=O)N1c1ccc(-c2csc(C)n2)cc1 (stereo not drawn) [Compound I-428]
260 nM	CCOc1ccccc1C1C(C(=O)C(C)(C)C)=C(O)C(=O)N1c1ccc(-c2ccon2)cc1 (stereo not drawn) [Compound I-059]
7 nM	COCCOc1ccccc1C1C(C(=O)CC(C)C)=C(O)C(=O)N1c1ccc(-c2ccc(C)o2)cc1 (stereo not drawn) [Compound I-381]
699 nM	COCc1ccccc1C1C(C(=O)C(C)C)=C(O)C(=O)N1c1ccc(-c2cc(C)on2)cc1 (stereo not drawn) [Compound I-458]
88 nM	CC(C)(C)c1n[nH]c2c1C(c1ccccc1C(=O)O)N(c1ccc(-c3ccsc3)cc1)C2=O (stereo not drawn) [II-131]
425 nM	COCCOc1ncccc1[C@H]1C(C(=O)C(C)C)=C(O)C(=O)N1c1ccc(-c2ccsc2)cc1 [Compound I-433]
8 nM	COc1ccccc1C1c2c(C(C)(C)CO)n[nH]c2C(=O)N1c1ccc(-c2ccsc2)cn1 (stereo not drawn) [II-251]
82 nM	COCCOc1cc(F)ccc1C1C(C(=O)CC(C)C)=C(O)C(=O)N1c1ccc(-c2noc(C)n2)cc1 (stereo not drawn) [Compound I-365]
193 nM	CC(C)CC(=O)C1=C(O)C(=O)N(c2ccc(-c3ccon3)cc2)C1c1ccccc1OC(F)(F)F (stereo not drawn) [Compound I-308]
3 nM	CC(C)c1n[nH]c2c1C(c1ccccc1OCc1nnn[nH]1)N(c1ccc(-c3ccsc3)cc1)C2=O (stereo not drawn) [II-175]
366 nM	Cc1nc(-c2ccc(N3C(=O)C(O)=C(C(=O)CC(C)C)C3c3ccccc3OCCO)cc2)no1 (stereo not drawn) [Compound I-278]
67 nM	CC(C)CC(=O)C1=C(O)C(=O)N(c2ccc(-c3ccoc3)cc2)C1c1ccccc1OC(F)F (stereo not drawn) [Compound I-342]
14 nM	COCCOc1ncccc1C1c2c(C(C)(C)C)n[nH]c2C(=O)N1c1ccc(-c2ccoc2)cc1 (stereo not drawn) [II-038]
220 nM	CC(C)C(=O)C1=C(O)C(=O)N(c2ccc(-c3ccon3)cc2)C1c1ccccc1OC(F)(F)F (stereo not drawn) [Compound I-297]
12 nM	COc1ccc(C(=O)C2=C(O)C(=O)N(c3ccc(-c4ccoc4)cc3)C2C2CCCCC2)cc1 (stereo not drawn) [Compound I-039]
43 nM	COc1ccccc1C1c2c(C(C)(C)CO)n[nH]c2C(=O)N1c1ccc(-c2ccoc2)cn1 (stereo not drawn) [II-250]
926 nM	COc1ccc2sc(N3C(=O)C(O)=C(C(=O)C(C)(C)C)C3c3ccccc3OC)nc2c1 (stereo not drawn) [Compound I-038]
14 nM	CCC(CC)C1C(C(=O)c2ccc(C(=O)NCCO)cc2)=C(O)C(=O)N1c1ccc(-c2ccon2)cc1 (stereo not drawn) [Compound I-008]
519 nM	CN(C)c1ccccc1C1C(C(=O)C(C)(C)C)=C(O)C(=O)N1c1ccc(-c2ccon2)cc1 (stereo not drawn) [Compound I-070]
596 nM	CC(C)(C)C(=O)C1=C(O)C(=O)N(c2ccc(-c3ccon3)cc2)C1c1cccc2c1OCO2 (stereo not drawn) [Compound I-055]
389 nM	CC(C)(C)c1n[nH]c2c1C(c1ccccc1S(C)(=O)=O)N(c1ccc(-c3ccon3)cc1)C2=O (stereo not drawn) [II-112]
